# From PMC12165799, “Antimicrobial peptide developed with machine learning sequence optimization targets drug resistant Staphylococcus aureus in mice” (The Journal of Clinical Investigation, 2025)
# Assays:
# [1] = system: S. aureus MW2 skin infection; test: Skin-abraded murine infection, prophylactic (acute) model, bacterial load; format: in vivo, mice; conditions: for Reduction of S. aureus MW2 burden vs vehicle, prophylactic model: single treatment 10 minutes after inoculation, n = 12; for Reduction of S. aureus MW2 burden, repeat of prophylactic model: n = 8
# Description: 599 In vivo murine skin infection and treatment
# 600 We used a topical skin-abraded murine infection model with minor modifications to test
# 601 the in vivo efficacy of the CIT-8 peptide (25). We performed all mouse studies following the
# 602 protocol approved by the Institutional Animal Care and Use Committee. In brief, we anesthetized
# 603 female C57BL/6 mice (6 weeks) (Jackson Laboratory, Bar Harbor, ME, USA) with ketamine-
# 604 xylazine (90 mg/kg ketamine and 10 mg/kg xylazine) via intraperitoneal injection. We shaved the
# 605 dorsal side of the mice in the middle of the back (area=2 cm2). To disrupt skin integrity, we tape-
# 606 stripped with Tensoplast® seven times in succession, replacing the tape each time, resulting in
# 607 visibly damaged skin. We infected the damaged skin area with 1 × 10^7 CFU of S. aureus MW2
# 608 (exponential phase bacteria in PBS) with an inoculum of 50 µl using a pipette tip. Ten minutes
# 609 (prophylactic model) and 24 h (established model) after bacterial inoculation, we applied 30 mg
# 610 of 1 and 2% (w/w) CIT-8 ointment in a white petroleum jelly base (Cat no. 19-090-843, Fisher
# 611 Scientific, MA, USA) to the skin. We also included animal groups treated with only petroleum
# 612 jelly or with 2% commercial mupirocin ointment as negative and positive controls, respectively.
# 613 For pain management, we used the analgesic buprenorphine SR (0.05 mg/kg).
# 614 After 24 h of treatment, we euthanized the animals, separated the skin from the underlying
# 615 fascia and muscle tissue, and excised about 2 cm2 of skin from the infected area. We ground the
# 616 skin in 1ml of PBS buffer (Gibco, MD, USA). We serially diluted 100 µl of the solution in PBS
# 617 and plated it on Remel™ TSA plates (Fisher, MA, USA) to estimate viable colony counts after 18
# 618 h of incubation at 37 °C. Further, we added 10 µl of EDTA-Free, protease inhibitor cocktail Set III
# 619 (Millipore Sigma, MA, USA) to 500 µl of the ground skin PBS solution for cytokine estimation.
# 620 The Cytokine Core, LLC (Indianapolis, IN, USA) performed the cytokine concentration analysis
# S. aureus MW2 membrane = test: SYTOX-based cell membrane permeability assay; design: species or system Staphylococcus aureus; conditions: S. aureus MW2, 1 hour; CIT-8 4–32 μg/mL
# Description: 484 min at room temperature in the dark based on a previously established protocol (8). We added 90
# 485 µl of the dye/bacteria mixture to 10 μl of serially diluted 10× peptide concentration in black, 96-
# 486 well plates (Cat. no. 3904, Corning, NY, USA) and incubated the plates for 1 hour at room
# 487 temperature. We measured the fluorescence with excitation and emission wavelengths of 485 nm
# 488 and 525 nm, respectively in endpoint assay mode using a SpectraMax i3x (Molecular Devices,
# 489 CA, USA) fluorescence reader.
# 490 Propidium iodide-based membrane permeability
# 491 We used a propidium iodide (Thermo Fisher Scientific, MA, USA) fluorescence-based
# 492 bacterial permeation assay to establish membrane-oriented interactions with the designed peptides
# 493 based on a previously established protocol (8). We prepared exponential phase S. aureus MW2
# 494 bacteria and diluted to OD600 = 0.4 in PBS. We added PI dye (final concentration = 2 µM) to the
# 495 bacteria in 1:10 serial dilutions in black, 96-well plates (Cat. no. 3904, Corning, NY, USA) and
# 496 incubated the plates for 1 hour at room temperature. We then measured the fluorescence with an
# 497 excitation wavelength of 584 nm and an emission wavelength of 620 nm in endpoint assay mode
# 498 using a SpectraMax i3x (Molecular Devices, CA, USA) fluorescence reader.
# 501 To determine the ATP leakage potential of the peptides, we employed a luciferase-based […]
# [2] = HPLC retention time on C18 reverse-phase column; format: physicochemical
# Source text: Table 1 Physical parameters and minimal inhibitory concentrations of citropin 1.1-derived peptides against S. aureus MW2 | column: rT^D (min)
substance,measurement,setting,value
H-GLFKVIKKLLKVI-NH2 [CIT-8],"Bacterial load from skin specimens, prophylactic model","[1]; 1% ointment 10 minutes after infection, animal 1",11428571
same,"Bacterial load from skin specimens, prophylactic model","[1]; 1% ointment 10 minutes after infection, animal 2",16000000
same,"Bacterial load from skin specimens, prophylactic model","[1]; 1% ointment 10 minutes after infection, animal 3",1555556
same,"Bacterial load from skin specimens, prophylactic model","[1]; 1% ointment 10 minutes after infection, animal 4",3636364
same,"Bacterial load from skin specimens, prophylactic model","[1]; 1% ointment 10 minutes after infection, animal 5",6000000
same,"Bacterial load from skin specimens, prophylactic model","[1]; 1% ointment 10 minutes after infection, animal 6",3111111
same,"Bacterial load from skin specimens, prophylactic model","[1]; 1% ointment 10 minutes after infection, animal 7",2250000
same,"Bacterial load from skin specimens, prophylactic model","[1]; 1% ointment 10 minutes after infection, animal 8",2200000
same,"Bacterial load from skin specimens, prophylactic model","[1]; 1% ointment 10 minutes after infection, animal 9",4210526
same,"Bacterial load from skin specimens, prophylactic model","[1]; 1% ointment 10 minutes after infection, animal 10",6153846
same,"Bacterial load from skin specimens, prophylactic model","[1]; 1% ointment 10 minutes after infection, animal 11",4000000
same,"Bacterial load from skin specimens, prophylactic model","[1]; 1% ointment 10 minutes after infection, animal 12",6060606
same,"Reduction of S. aureus MW2 burden vs vehicle, prophylactic model",[1]; 1% w/w ointment,1.7 log
same,"Reduction of S. aureus MW2 burden, repeat of prophylactic model",[1]; 1% w/w,1.4 log
same,"Bacterial load from skin specimens, prophylactic model","[1]; 2% ointment 10 minutes after infection, animal 1",1000000
same,"Bacterial load from skin specimens, prophylactic model","[1]; 2% ointment 10 minutes after infection, animal 2",1142857
same,"Bacterial load from skin specimens, prophylactic model","[1]; 2% ointment 10 minutes after infection, animal 3",2400000
same,"Bacterial load from skin specimens, prophylactic model","[1]; 2% ointment 10 minutes after infection, animal 4",444444
same,"Bacterial load from skin specimens, prophylactic model","[1]; 2% ointment 10 minutes after infection, animal 5",1684211
same,"Bacterial load from skin specimens, prophylactic model","[1]; 2% ointment 10 minutes after infection, animal 6",4000000
same,"Bacterial load from skin specimens, prophylactic model","[1]; 2% ointment 10 minutes after infection, animal 7",666667
same,"Bacterial load from skin specimens, prophylactic model","[1]; 2% ointment 10 minutes after infection, animal 8",923077
same,"Bacterial load from skin specimens, prophylactic model","[1]; 2% ointment 10 minutes after infection, animal 9",909091
same,"Bacterial load from skin specimens, prophylactic model","[1]; 2% ointment 10 minutes after infection, animal 10",4923077
same,"Bacterial load from skin specimens, prophylactic model","[1]; 2% ointment 10 minutes after infection, animal 11",3666667
same,"Bacterial load from skin specimens, prophylactic model","[1]; 2% ointment 10 minutes after infection, animal 12",1200000
same,"Reduction of bacterial burden, mouse model of MRSA skin infection",[1]; 2% w/w in petroleum jelly (abstract),2.3 log10
same,"Reduction of S. aureus MW2 burden vs vehicle, prophylactic model",[1]; 2% w/w ointment,2.3 log
same,"Reduction of S. aureus MW2 burden, repeat of prophylactic model",[1]; 2% w/w,2.1 log
same,SYTOX Green fluorescence (membrane permeation),S. aureus MW2 membrane,significantly increased fluorescence levels
same,rT (HPLC retention time),[2],22.465 min
